Each block holds one molecule with its values, some of them ahead of it.
Test system: 377384-186-R-J1-PDC complex spheroid viability
Assay: Anticancer human tumor 377384-186-R-J1-PDC patient-derived pancreatic carcinoma cell line growth inhibition [RAS]
Conditions: for IC50: curve of first compound; for viability, T/C: stronger effect = lower value
Procedure, shortened: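 Agents were tested in combination matrices in half-log decrements from a top concentration at or near clinical Cmax (10 microM if undetermined). Targets were multi-cell spheroids of tumour lines plus HUVEC and MSC stromal cells.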

[1] = second compound 0.00316 µM, first compound 0.0316 µM
[2] = second compound 0.00316 µM, first compound 0.1 µM
[3] = second compound 0.00316 µM, first compound 0.316 µM
[4] = second compound 0.00316 µM, first compound 1 µM
[5] = second compound 0.00316 µM, first compound 3.16 µM
[6] = second compound 0.00316 µM, first compound 10 µM
[7] = second compound 0.01 µM, first compound 0.0316 µM
[8] = second compound 0.01 µM, first compound 0.1 µM
[9] = second compound 0.01 µM, first compound 0.316 µM
[10] = second compound 0.01 µM, first compound 1 µM
[11] = second compound 0.01 µM, first compound 3.16 µM
[12] = second compound 0.01 µM, first compound 10 µM
[13] = second compound 0.0316 µM, first compound 0.0316 µM
[14] = second compound 0.0316 µM, first compound 0.1 µM
[15] = second compound 0.0316 µM, first compound 0.316 µM
[16] = second compound 0.0316 µM, first compound 1 µM
[17] = second compound 0.0316 µM, first compound 3.16 µM
[18] = second compound 0.0316 µM, first compound 10 µM
[19] = second compound 0.1 µM, first compound 0.0316 µM
[20] = second compound 0.1 µM, first compound 0.1 µM
[21] = second compound 0.1 µM, first compound 0.316 µM
[22] = second compound 0.1 µM, first compound 1 µM
[23] = second compound 0.1 µM, first compound 3.16 µM
[24] = second compound 0.1 µM, first compound 10 µM
[25] = second compound 0.316 µM, first compound 0.0316 µM
[26] = second compound 0.316 µM, first compound 0.1 µM
[27] = second compound 0.316 µM, first compound 0.316 µM
[28] = second compound 0.316 µM, first compound 1 µM
[29] = second compound 0.316 µM, first compound 3.16 µM
[30] = second compound 0.316 µM, first compound 10 µM
[31] = second compound 1 µM, first compound 0.0316 µM
[32] = second compound 1 µM, first compound 0.1 µM
[33] = second compound 1 µM, first compound 0.316 µM
[34] = second compound 1 µM, first compound 1 µM
[35] = second compound 1 µM, first compound 3.16 µM
[36] = second compound 1 µM, first compound 10 µM
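Also: spheroids exposed to compounds for seven days before readout.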

IC50 (second compound 0.00316 µM): < 31.6 nM
IC50 (second compound 0.01 µM): < 31.6 nM
IC50 (second compound 0.0316 µM): < 31.6 nM
IC50 (second compound 0.1 µM): < 31.6 nM
IC50 (second compound 0.316 µM): < 31.6 nM
IC50 (second compound 1 µM): < 31.6 nM
SMILES: CC(=O)OC12COC1CC(O)C1(C)C(=O)C(O)C3=C(C)C(OC(=O)C(O)C(NC(=O)OC(C)(C)C)c4ccccc4)CC(O)(C(OC(=O)c4ccccc4)C21)C3(C)C (stereo not given) + C=CC(=O)N1CCN(c2nc(OCC3CCCN3C)nc3c(F)c(-c4nc(N)cc(C)c4C(F)(F)F)c(Cl)cc23)C(C)C1
viability, T/C [1]: 9.92%
viability, T/C [2]: 11.3%
viability, T/C [3]: 8.82%
viability, T/C [4]: 12.3%
viability, T/C [5]: 11.7%
viability, T/C [6]: 14.2%
viability, T/C [7]: 8.32%
viability, T/C [8]: 8.59%
viability, T/C [9]: 9.28%
viability, T/C [10]: 10.8%
viability, T/C [11]: 14.4%
viability, T/C [12]: 11.4%
viability, T/C [13]: 8.72%
viability, T/C [14]: 8.61%
viability, T/C [15]: 9.75%
viability, T/C [16]: 12.3%
viability, T/C [17]: 13.2%
viability, T/C [18]: 14%
viability, T/C [19]: 9.31%
viability, T/C [20]: 9.36%
viability, T/C [21]: 9.95%
viability, T/C [22]: 12.9%
viability, T/C [23]: 12.4%
viability, T/C [24]: 9.63%
viability, T/C [25]: 9.62%
viability, T/C [26]: 7.81%
viability, T/C [27]: 8.61%
viability, T/C [28]: 10.3%
viability, T/C [29]: 13.6%
viability, T/C [30]: 14.5%
viability, T/C [31]: 9.06%
viability, T/C [32]: 11.8%
viability, T/C [33]: 13.3%
viability, T/C [34]: 12.9%
viability, T/C [35]: 12.3%
viability, T/C [36]: 14.5%

IC50 (second compound 0.00316 µM): 1580 nM
IC50 (second compound 0.01 µM): 1650 nM
IC50 (second compound 0.0316 µM): 1700 nM
IC50 (second compound 0.1 µM): 1720 nM
IC50 (second compound 0.316 µM): 1720 nM
IC50 (second compound 1 µM): 1770 nM
SMILES: CCC(CC)c1cc(NC2CCC(N)C2)n2nccc2n1 (stereo not given) + C=CC(=O)N1CCN(c2nc(OCC3CCCN3C)nc3c(F)c(-c4nc(N)cc(C)c4C(F)(F)F)c(Cl)cc23)C(C)C1
viability, T/C [1]: 98%
viability, T/C [2]: 100%
viability, T/C [3]: 109%
viability, T/C [4]: 80.4%
viability, T/C [5]: 2.73%
viability, T/C [6]: 4.78%
viability, T/C [7]: 106%
viability, T/C [8]: 100%
viability, T/C [9]: 110%
viability, T/C [10]: 86.5%
viability, T/C [11]: 2.18%
viability, T/C [12]: 3.83%
viability, T/C [13]: 107%
viability, T/C [14]: 88.6%
viability, T/C [15]: 124%
viability, T/C [16]: 89.4%
viability, T/C [17]: 2.68%
viability, T/C [18]: 4.52%
viability, T/C [19]: 101%
viability, T/C [20]: 97.9%
viability, T/C [21]: 112%
viability, T/C [22]: 91.3%
viability, T/C [23]: 2.71%
viability, T/C [24]: 5.16%
viability, T/C [25]: 101%
viability, T/C [26]: 102%
viability, T/C [27]: 101%
viability, T/C [28]: 90.3%
viability, T/C [29]: 3.2%
viability, T/C [30]: 6.46%
viability, T/C [31]: 94.4%
viability, T/C [32]: 95.8%
viability, T/C [33]: 96.8%
viability, T/C [34]: 94.6%
viability, T/C [35]: 3.19%
viability, T/C [36]: 6.78%

IC50 (second compound 0.00316 µM): > 10000 nM
IC50 (second compound 0.01 µM): > 10000 nM
IC50 (second compound 0.0316 µM): > 10000 nM
IC50 (second compound 0.1 µM): > 10000 nM
IC50 (second compound 0.316 µM): > 10000 nM
IC50 (second compound 1 µM): > 10000 nM
SMILES: Cc1nc(N2CCC3(CC2)COC(C)C3N)c(CO)nc1Sc1ccnc(N)c1Cl (stereo not given) + C=CC(=O)N1CCN(c2nc(OCC3CCCN3C)nc3c(F)c(-c4nc(N)cc(C)c4C(F)(F)F)c(Cl)cc23)C(C)C1
viability, T/C [1]: 94.2%
viability, T/C [2]: 77%
viability, T/C [3]: 84%
viability, T/C [4]: 80.4%
viability, T/C [5]: 70%
viability, T/C [6]: 67%
viability, T/C [7]: 90.9%
viability, T/C [8]: 85.9%
viability, T/C [9]: 81%
viability, T/C [10]: 74.7%
viability, T/C [11]: 79.1%
viability, T/C [12]: 77.8%
viability, T/C [13]: 91.1%
viability, T/C [14]: 80.7%
viability, T/C [15]: 72.4%
viability, T/C [16]: 80.4%
viability, T/C [17]: 79.2%
viability, T/C [18]: 78.4%
viability, T/C [19]: 84.4%
viability, T/C [20]: 82.7%
viability, T/C [21]: 70.7%
viability, T/C [22]: 76%
viability, T/C [23]: 80.1%
viability, T/C [24]: 74.6%
viability, T/C [25]: 91.8%
viability, T/C [26]: 87%
viability, T/C [27]: 76.5%
viability, T/C [28]: 79.3%
viability, T/C [29]: 75.7%
viability, T/C [30]: 69.8%
viability, T/C [31]: 84.1%
viability, T/C [32]: 91.2%
viability, T/C [33]: 81.7%
viability, T/C [34]: 73.6%
viability, T/C [35]: 78.4%
viability, T/C [36]: 79.8%

IC50 (second compound 0.00316 µM): > 10000 nM
IC50 (second compound 0.01 µM): > 10000 nM
IC50 (second compound 0.0316 µM): > 10000 nM
IC50 (second compound 0.1 µM): > 10000 nM
IC50 (second compound 0.316 µM): > 10000 nM
IC50 (second compound 1 µM): > 10000 nM
SMILES: NC1c2ccccc2OC12CCN(c1cnc3c(N4CCCc5ncccc54)n[nH]c3n1)CC2 (stereo not given) + C=CC(=O)N1CCN(c2nc(OCC3CCCN3C)nc3c(F)c(-c4nc(N)cc(C)c4C(F)(F)F)c(Cl)cc23)C(C)C1
viability, T/C [1]: 82.9%
viability, T/C [2]: 77%
viability, T/C [3]: 66.5%
viability, T/C [4]: 69.1%
viability, T/C [5]: 75.6%
viability, T/C [6]: 68.4%
viability, T/C [7]: 86.9%
viability, T/C [8]: 63.1%
viability, T/C [9]: 76.8%
viability, T/C [10]: 71.9%
viability, T/C [11]: 65.8%
viability, T/C [12]: 63.8%
viability, T/C [13]: 83.5%
viability, T/C [14]: 68.8%
viability, T/C [15]: 76%
viability, T/C [16]: 65.7%
viability, T/C [17]: 57.7%
viability, T/C [18]: 66%
viability, T/C [19]: 90.7%
viability, T/C [20]: 70.1%
viability, T/C [21]: 75.9%
viability, T/C [22]: 64.5%
viability, T/C [23]: 72.1%
viability, T/C [24]: 70.7%
viability, T/C [25]: 81.2%
viability, T/C [26]: 70.8%
viability, T/C [27]: 78.9%
viability, T/C [28]: 70.3%
viability, T/C [29]: 71.8%
viability, T/C [30]: 71%
viability, T/C [31]: 79.3%
viability, T/C [32]: 73.3%
viability, T/C [33]: 77.9%
viability, T/C [34]: 73.1%
viability, T/C [35]: 76.3%
viability, T/C [36]: 68.4%

IC50 (second compound 0.00316 µM): 6.73 nM
IC50 (second compound 0.01 µM): 7.09 nM
IC50 (second compound 0.0316 µM): 6.58 nM
IC50 (second compound 0.1 µM): 5.53 nM
IC50 (second compound 0.316 µM): 7.31 nM
IC50 (second compound 1 µM): 6.18 nM
SMILES: Nc1ccn(C2OC(CO)C(O)C2(F)F)c(=O)n1 (stereo not given) + C=CC(=O)N1CCN(c2nc(OCC3CCCN3C)nc3c(F)c(-c4nc(N)cc(C)c4C(F)(F)F)c(Cl)cc23)C(C)C1
viability, T/C (second compound 0.00316 µM, first compound 0.00316 µM): 76.9%
viability, T/C (second compound 0.00316 µM, first compound 0.01 µM): 35.9%
viability, T/C [1]: 11.5%
viability, T/C [2]: 4.72%
viability, T/C [3]: 3.54%
viability, T/C [4]: 2.18%
viability, T/C (second compound 0.01 µM, first compound 0.00316 µM): 81.7%
viability, T/C (second compound 0.01 µM, first compound 0.01 µM): 36.5%
viability, T/C [7]: 13.4%
viability, T/C [8]: 4.91%
viability, T/C [9]: 3.97%
viability, T/C [10]: 3.71%
viability, T/C (second compound 0.0316 µM, first compound 0.00316 µM): 74%
viability, T/C (second compound 0.0316 µM, first compound 0.01 µM): 36.3%
viability, T/C [13]: 9.49%
viability, T/C [14]: 4.74%
viability, T/C [15]: 3.22%
viability, T/C [16]: 2.97%
viability, T/C (second compound 0.1 µM, first compound 0.00316 µM): 60.4%
viability, T/C (second compound 0.1 µM, first compound 0.01 µM): 38.9%
viability, T/C [19]: 12%
viability, T/C [20]: 3.63%
viability, T/C [21]: 3.27%
viability, T/C [22]: 2.81%
viability, T/C (second compound 0.316 µM, first compound 0.00316 µM): 80.5%
viability, T/C (second compound 0.316 µM, first compound 0.01 µM): 38.5%
viability, T/C [25]: 13.1%
viability, T/C [26]: 4.24%
viability, T/C [27]: 3.5%
viability, T/C [28]: 3.38%
viability, T/C (second compound 1 µM, first compound 0.00316 µM): 65.3%
viability, T/C (second compound 1 µM, first compound 0.01 µM): 38.8%
viability, T/C [31]: 16.7%
viability, T/C [32]: 5.53%
viability, T/C [33]: 4.43%
viability, T/C [34]: 4.1%
